Data from patent US10681909B2, “Herbicidal triazoles” (FMC Corporation, priority 2014, dated 2020).

Legend:
galium = experiment: Test C postemergence; assay type: in vivo, Galium aparine
Method in brief: (§1)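 Preemergence: seeds sown in loam soil–sand blend and treated with test chemicals formulated in a non-phytotoxic solvent mixture containing a surfactant. Postemergence: plants grown in peat moss/vermiculite-based medium and sprayed with the same formulation at 2 to 18 cm height (1- to 4-leaf stage).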

waterhemp = experiment: Test C postemergence; assay type: in vivo, Amaranthus rudis
Method in brief: as §1

kochia = experiment: Test C postemergence; assay type: in vivo, Kochia scoparia
Method in brief: as §1

pigweed = experiment: Test A postemergence; assay type: in vivo, Amaranthus retroflexus; conditions: 0 to 100 scale (0 no effect, 100 complete control), approx. 10 d
Method in brief: (§2)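 For preemergence, seeds were sown in a loam soil-sand blend and given a directed soil spray of test chemical in a non-phytotoxic solvent mixture with surfactant. For postemergence, plants in pots of the same blend were sprayed with the same formulation at the one- to two-leaf stage, 2 to 10 cm tall.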

johnsongrass = experiment: Test C postemergence; assay type: in vivo, Sorghum halepense
Method in brief: as §1

blackgrass = experiment: Test C postemergence; assay type: in vivo, Alopecurus myosuroides
Method in brief: as §1

barnyardgrass [1] = experiment: Test A preemergence; assay type: in vivo, Echinochloa crus-galli; conditions: 0 to 100 scale (0 no effect, 100 complete control)
Method in brief: as §2

corn = experiment: Test C postemergence; assay type: in vivo, Zea mays
Method in brief: as §1

barnyardgrass [2] = experiment: Test C postemergence; assay type: in vivo, Echinochloa crus-galli
Method in brief: as §1

nutsedge, yellow = experiment: Test C postemergence; assay type: in vivo, Cyperus esculentus
Method in brief: as §1

morningglory = experiment: Test C postemergence; assay type: in vivo, Ipomoea coccinea
Method in brief: as §1

velvetleaf = experiment: Test C postemergence; assay type: in vivo, Abutilon theophrasti
Method in brief: as §1

sedge, umbrella = experiment: Test B flooded paddy test; assay type: in vivo, Cyperus difformis; conditions: 250 g ai/ha, applied to paddy water at 2-leaf stage, visual rating after 13 to 15 d, scale 0 (no effect) to 100 (complete control)
Method in brief: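 Pots were flooded to 3 cm above the soil at treatment, and compounds were applied directly into the paddy water. That depth was held throughout. After 13 to 15 d in a greenhouse, plants were rated visually against untreated controls.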

crabgrass, large = experiment: Test C postemergence; assay type: in vivo, Digitaria sanguinalis
Method in brief: as §1

foxtail, giant [3] = experiment: Test A preemergence; assay type: in vivo, Setaria faberii; conditions: 0 to 100 scale (0 no effect, 100 complete control)
Method in brief: as §2

ryegrass, Italian = experiment: Test C postemergence; assay type: in vivo, Lolium multiflorum
Method in brief: as §1

wheat = experiment: Test A postemergence; assay type: in vivo, Triticum aestivum; conditions: 0 to 100 scale (0 no effect, 100 complete control), approx. 10 d
Method in brief: as §2

barnyardgrass [4] = experiment: Test A postemergence; assay type: in vivo, Echinochloa crus-galli; conditions: 0 to 100 scale (0 no effect, 100 complete control), approx. 10 d
Method in brief: as §2

foxtail, giant [5] = experiment: Test A postemergence; assay type: in vivo, Setaria faberii; conditions: 0 to 100 scale (0 no effect, 100 complete control), approx. 10 d
Method in brief: as §2

oilseed rape = experiment: Test C postemergence; assay type: in vivo, Brassica napus
Method in brief: as §1

## CCOc1nc(-c2ccccc2)nn1Cc1ccnc(C(F)(F)F)c1 [Compound 27]
galium; 31 g ai/ha
  Plant response rating (scale of 0 to 100 where 0 is no effect and 100 is complete control): 90
galium; 62 g ai/ha
  Plant response rating (scale of 0 to 100 where 0 is no effect and 100 is complete control): 90
galium; 125 g ai/ha
  Plant response rating (scale of 0 to 100 where 0 is no effect and 100 is complete control): 85
galium; 250 g ai/ha
  Plant response rating (scale of 0 to 100 where 0 is no effect and 100 is complete control): 90
waterhemp; 31 g ai/ha
  Plant response rating (scale of 0 to 100 where 0 is no effect and 100 is complete control): 90
waterhemp; 62 g ai/ha
  Plant response rating (scale of 0 to 100 where 0 is no effect and 100 is complete control): 95
waterhemp; 125 g ai/ha
  Plant response rating (scale of 0 to 100 where 0 is no effect and 100 is complete control): 95
waterhemp; 250 g ai/ha
  Plant response rating (scale of 0 to 100 where 0 is no effect and 100 is complete control): 98
kochia; 31 g ai/ha
  Plant response rating (scale of 0 to 100 where 0 is no effect and 100 is complete control): 95
kochia; 62 g ai/ha
  Plant response rating (scale of 0 to 100 where 0 is no effect and 100 is complete control): 95
kochia; 125 g ai/ha
  Plant response rating (scale of 0 to 100 where 0 is no effect and 100 is complete control): 95
kochia; 250 g ai/ha
  Plant response rating (scale of 0 to 100 where 0 is no effect and 100 is complete control): 95
pigweed; 125 g ai/ha
  Plant response rating, Pigweed: 100
pigweed; 500 g ai/ha
  Plant response rating, Pigweed: 100
johnsongrass; 31 g ai/ha
  Plant response rating (scale of 0 to 100 where 0 is no effect and 100 is complete control): 5
johnsongrass; 62 g ai/ha
  Plant response rating (scale of 0 to 100 where 0 is no effect and 100 is complete control): 45
johnsongrass; 125 g ai/ha
  Plant response rating (scale of 0 to 100 where 0 is no effect and 100 is complete control): 100
blackgrass; 31 g ai/ha
  Plant response rating (scale of 0 to 100 where 0 is no effect and 100 is complete control): 10
blackgrass; 62 g ai/ha
  Plant response rating (scale of 0 to 100 where 0 is no effect and 100 is complete control): 15
blackgrass; 125 g ai/ha
  Plant response rating (scale of 0 to 100 where 0 is no effect and 100 is complete control): 35
blackgrass; 250 g ai/ha
  Plant response rating (scale of 0 to 100 where 0 is no effect and 100 is complete control): 50
Barnyardgrass [1]; 125 g ai/ha
  Plant response rating, Barnyardgrass: 100
Barnyardgrass [1]; 500 g ai/ha, approx. 10 d
  Plant response rating, Barnyardgrass: 100
corn; 31 g ai/ha
  Plant response rating (scale of 0 to 100 where 0 is no effect and 100 is complete control): 10
corn; 62 g ai/ha
  Plant response rating (scale of 0 to 100 where 0 is no effect and 100 is complete control): 15
corn; 125 g ai/ha
  Plant response rating (scale of 0 to 100 where 0 is no effect and 100 is complete control): 10
corn; 250 g ai/ha
  Plant response rating (scale of 0 to 100 where 0 is no effect and 100 is complete control): 25
Barnyardgrass [2]; 31 g ai/ha
  Plant response rating (scale of 0 to 100 where 0 is no effect and 100 is complete control): 10
Barnyardgrass [2]; 62 g ai/ha
  Plant response rating (scale of 0 to 100 where 0 is no effect and 100 is complete control): 15
Barnyardgrass [2]; 125 g ai/ha
  Plant response rating (scale of 0 to 100 where 0 is no effect and 100 is complete control): 25
Barnyardgrass [2]; 250 g ai/ha
  Plant response rating (scale of 0 to 100 where 0 is no effect and 100 is complete control): 55
nutsedge, yellow; 31 g ai/ha
  Plant response rating (scale of 0 to 100 where 0 is no effect and 100 is complete control): 5
nutsedge, yellow; 62 g ai/ha
  Plant response rating (scale of 0 to 100 where 0 is no effect and 100 is complete control): 5
nutsedge, yellow; 125 g ai/ha
  Plant response rating (scale of 0 to 100 where 0 is no effect and 100 is complete control): 10
nutsedge, yellow; 250 g ai/ha
  Plant response rating (scale of 0 to 100 where 0 is no effect and 100 is complete control): 10
morningglory; 31 g ai/ha
  Plant response rating (scale of 0 to 100 where 0 is no effect and 100 is complete control): 85
morningglory; 62 g ai/ha
  Plant response rating (scale of 0 to 100 where 0 is no effect and 100 is complete control): 80
morningglory; 125 g ai/ha
  Plant response rating (scale of 0 to 100 where 0 is no effect and 100 is complete control): 90
morningglory; 250 g ai/ha
  Plant response rating (scale of 0 to 100 where 0 is no effect and 100 is complete control): 85
velvetleaf; 31 g ai/ha
  Plant response rating (scale of 0 to 100 where 0 is no effect and 100 is complete control): 45
velvetleaf; 62 g ai/ha
  Plant response rating (scale of 0 to 100 where 0 is no effect and 100 is complete control): 50
velvetleaf; 125 g ai/ha
  Plant response rating (scale of 0 to 100 where 0 is no effect and 100 is complete control): 60
velvetleaf; 250 g ai/ha
  Plant response rating (scale of 0 to 100 where 0 is no effect and 100 is complete control): 70
sedge, umbrella
  Plant response rating, Sedge, Umbrella, Flood: 95
crabgrass, large; 31 g ai/ha
  Plant response rating (scale of 0 to 100 where 0 is no effect and 100 is complete control): 10
crabgrass, large; 62 g ai/ha
  Plant response rating (scale of 0 to 100 where 0 is no effect and 100 is complete control): 20
crabgrass, large; 125 g ai/ha
  Plant response rating (scale of 0 to 100 where 0 is no effect and 100 is complete control): 15
crabgrass, large; 250 g ai/ha
  Plant response rating (scale of 0 to 100 where 0 is no effect and 100 is complete control): 45
foxtail, giant [3]; 125 g ai/ha
  Plant response rating, Foxtail, Giant: 100
foxtail, giant [3]; 500 g ai/ha, approx. 10 d
  Plant response rating, Foxtail, Giant: 100
ryegrass, Italian; 31 g ai/ha
  Plant response rating (scale of 0 to 100 where 0 is no effect and 100 is complete control): 5
ryegrass, Italian; 62 g ai/ha
  Plant response rating (scale of 0 to 100 where 0 is no effect and 100 is complete control): 20
ryegrass, Italian; 125 g ai/ha
  Plant response rating (scale of 0 to 100 where 0 is no effect and 100 is complete control): 30
ryegrass, Italian; 250 g ai/ha
  Plant response rating (scale of 0 to 100 where 0 is no effect and 100 is complete control): 35
wheat; 125 g ai/ha
  Plant response rating, Wheat: 20
wheat; 500 g ai/ha
  Plant response rating, Wheat: 70
Barnyardgrass [4]; 125 g ai/ha
  Plant response rating, Barnyardgrass: 90
Barnyardgrass [4]; 500 g ai/ha
  Plant response rating, Barnyardgrass: 90
foxtail, giant [5]; 125 g ai/ha
  Plant response rating, Foxtail, Giant: 90
foxtail, giant [5]; 500 g ai/ha
  Plant response rating, Foxtail, Giant: 100
Oilseed rape; Oilsee Rape, 250 g ai/ha
  Plant response rating (scale of 0 to 100 where 0 is no effect and 100 is complete control): 90
Oilseed rape; Oilseed Rape, 31 g ai/ha
  Plant response rating (scale of 0 to 100 where 0 is no effect and 100 is complete control): 90
Oilseed rape; Oilseed Rape, 62 g ai/ha
  Plant response rating (scale of 0 to 100 where 0 is no effect and 100 is complete control): 90
Oilseed rape; Oilseed Rape, 125 g ai/ha
  Plant response rating (scale of 0 to 100 where 0 is no effect and 100 is complete control): 90
